Data as given in patent US20210161855A1, “5-LIPOXYGENASE ANTAGONISTS” (INSTITUTO DE MEDICINA MOLECULAR JOÃO LOBO ANTUNES, priority 2017, published 2021).

Columns and labels:
5-lipoxygenase (5-LO) = molecular target: T1, 5-lipoxygenase (5-LO) (Homo sapiens, UniProt P09917); experiment: 5-LO inhibition assay, Method A (Cerep), cell-free functional; format: biochemical
T1 sequence (P09917 1-674): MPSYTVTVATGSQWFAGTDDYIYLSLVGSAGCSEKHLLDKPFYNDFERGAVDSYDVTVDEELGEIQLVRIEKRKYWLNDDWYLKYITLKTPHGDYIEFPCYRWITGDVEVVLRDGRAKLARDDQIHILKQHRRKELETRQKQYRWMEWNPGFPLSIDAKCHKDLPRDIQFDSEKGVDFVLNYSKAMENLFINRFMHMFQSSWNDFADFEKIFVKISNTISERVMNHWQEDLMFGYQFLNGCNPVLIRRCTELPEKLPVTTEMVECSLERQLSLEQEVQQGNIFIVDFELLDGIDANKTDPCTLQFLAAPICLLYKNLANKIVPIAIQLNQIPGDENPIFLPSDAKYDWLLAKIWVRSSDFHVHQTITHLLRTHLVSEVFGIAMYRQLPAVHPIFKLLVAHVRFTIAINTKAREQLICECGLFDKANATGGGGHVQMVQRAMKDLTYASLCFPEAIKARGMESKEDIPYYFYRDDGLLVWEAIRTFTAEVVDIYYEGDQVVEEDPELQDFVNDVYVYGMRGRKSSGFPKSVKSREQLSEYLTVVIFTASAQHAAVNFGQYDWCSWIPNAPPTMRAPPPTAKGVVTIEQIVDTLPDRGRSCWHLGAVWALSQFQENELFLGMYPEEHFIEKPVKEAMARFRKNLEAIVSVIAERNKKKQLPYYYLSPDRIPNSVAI
Description: (§1) Method A: 5-Lipoxygenase (5-LO), 12-lipoxygenase (12-LO) and 15-lipoxygenase-2 (15-LO-2) inhibition assays were performed at Cerep, SA (Celle l'Evescault, France) on a fee-for-service basis (Ref 0772^36, 0883^37 and 0893^38, respectively), as described in Table 1.

[1] = mouse, in vivo, iv, 100 mg/kg
purified human 5-LO = molecular target: T2, purified human 5-LO (Homo sapiens, UniProt P09917); experiment: Intrinsic tryptophan fluorescence; format: binding; settings: 1 mM dithiothreitol, increasing concentrations
T2 construct: purchased Abcam ab114310
T2 sequence (P09917 1-674): T1 sequence (P09917 1-674)
Description: 5-Lipoxygenase (Cat No. ab114310, Abcam) was concentrated to 0.5 μM in buffer (50 mM Tris-HCl, pH 8.0, 5 mM CaCl2). […] The final DMSO concentration was kept under 0.1%. Fluorescent measurements were performed using a 1 cm pathlength quartz cuvette. Spectra were collected in an Edinburgh Instruments FLS920 Series Fluorescence Spectrophotometer at 25° C. with fluorescence excitation and scanning emission set to 295 nm and 310 to 450 nm, respectively. All assays were carried out in triplicate.

[2] = molecular target: Phosphodiesterase 5 (PDE5) (Homo sapiens, UniProt O76074); experiment: Phosphodiesterase 5 assay (Cerep); format: biochemical; settings: 2 μM
Description: Phosphodiesterase 5 (PDE5) assay was performed at Cerep, SA (Celle l'Evescault, France) on a fee-for-service basis (Ref 0204^39), as described in Table 2. [table]

EP3 = molecular target: T3, EP3 (Homo sapiens, UniProt P43115); experiment: Prostanoid EP3 receptor antagonism, functional assay; format: cell-based; settings: 150 μM
T3 sequence (P43115 1-390): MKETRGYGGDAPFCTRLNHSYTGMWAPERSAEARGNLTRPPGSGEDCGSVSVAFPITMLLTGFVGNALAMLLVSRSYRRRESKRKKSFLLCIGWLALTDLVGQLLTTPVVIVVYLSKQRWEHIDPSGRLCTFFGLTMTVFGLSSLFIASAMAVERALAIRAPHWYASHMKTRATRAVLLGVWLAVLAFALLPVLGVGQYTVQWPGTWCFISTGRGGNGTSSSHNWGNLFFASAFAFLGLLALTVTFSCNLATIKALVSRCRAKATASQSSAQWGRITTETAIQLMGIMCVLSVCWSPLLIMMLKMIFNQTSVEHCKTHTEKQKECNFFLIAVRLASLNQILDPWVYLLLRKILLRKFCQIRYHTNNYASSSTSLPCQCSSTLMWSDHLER

Escherichia coli K12 = experiment: MIC/MBC assay, E. coli; format: cell-based; settings: read-out: Minimum bactericidal concentration
Description: Escherichia coli K12 and Staphylococcus aureus ATCC 25923 were grown overnight at 37° C. and re-inoculated in 24-well plates containing 2.5 mL of Luria Bertani medium (LB) to give an optical density of ˜0.01 at 600 nm. Stock solutions of β-lapachone, and lapachol were prepared in DMSO (1% final concentration) and added to the cell suspensions to obtain final concentrations between 5-210 μM. Wells containing a growth control (cell suspensions with 1% DMSO) and a sterile media control were also prepared. The plates were incubated for 18 h at 37° C. and 90 r.p.m. The concentration of compound in the first well in the series that presented no sign of visible growth was reported as the MIC. The OD600 of the cultures was also measured. All the MIC wells were serially diluted in phosphate buffer saline (PBS) and plated onto LB agar plates.

TRPV1 = TRPV1 (Homo sapiens, UniProt Q8NER1); experiment: TRPV1 channel antagonism, functional assay; format: cell-based; settings: 150 μM
Chain of TRPV1 (Q8NER1 whole entry, species assumed): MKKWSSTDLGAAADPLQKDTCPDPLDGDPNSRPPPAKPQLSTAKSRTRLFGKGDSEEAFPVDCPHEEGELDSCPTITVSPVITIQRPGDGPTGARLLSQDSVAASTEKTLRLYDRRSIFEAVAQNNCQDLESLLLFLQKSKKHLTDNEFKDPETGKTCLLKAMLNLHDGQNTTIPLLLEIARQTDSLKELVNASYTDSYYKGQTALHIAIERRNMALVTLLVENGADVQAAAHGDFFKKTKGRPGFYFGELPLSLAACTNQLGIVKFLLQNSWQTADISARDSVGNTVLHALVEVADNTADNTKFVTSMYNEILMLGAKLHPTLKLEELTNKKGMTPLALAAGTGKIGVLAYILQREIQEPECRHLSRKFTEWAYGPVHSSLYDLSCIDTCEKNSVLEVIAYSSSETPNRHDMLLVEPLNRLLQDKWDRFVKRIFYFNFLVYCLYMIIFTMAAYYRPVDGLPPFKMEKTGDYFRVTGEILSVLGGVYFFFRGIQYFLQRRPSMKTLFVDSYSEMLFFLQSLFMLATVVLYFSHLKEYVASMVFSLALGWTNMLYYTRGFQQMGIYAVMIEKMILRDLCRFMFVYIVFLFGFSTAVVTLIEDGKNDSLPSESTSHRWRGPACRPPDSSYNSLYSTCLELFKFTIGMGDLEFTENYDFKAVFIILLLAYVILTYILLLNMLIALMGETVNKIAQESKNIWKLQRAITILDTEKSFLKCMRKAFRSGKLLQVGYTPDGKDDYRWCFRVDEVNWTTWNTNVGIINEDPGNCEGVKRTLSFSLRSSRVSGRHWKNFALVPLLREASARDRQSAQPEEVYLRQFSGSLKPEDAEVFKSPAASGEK

[3] = molecular target: T4, 15-lipoxygenase-2 (15-LO-2) (Homo sapiens, UniProt O15296); experiment: 15-LO-2 inhibition assay, Method A (Cerep); format: biochemical
T4 sequence (O15296 1-676): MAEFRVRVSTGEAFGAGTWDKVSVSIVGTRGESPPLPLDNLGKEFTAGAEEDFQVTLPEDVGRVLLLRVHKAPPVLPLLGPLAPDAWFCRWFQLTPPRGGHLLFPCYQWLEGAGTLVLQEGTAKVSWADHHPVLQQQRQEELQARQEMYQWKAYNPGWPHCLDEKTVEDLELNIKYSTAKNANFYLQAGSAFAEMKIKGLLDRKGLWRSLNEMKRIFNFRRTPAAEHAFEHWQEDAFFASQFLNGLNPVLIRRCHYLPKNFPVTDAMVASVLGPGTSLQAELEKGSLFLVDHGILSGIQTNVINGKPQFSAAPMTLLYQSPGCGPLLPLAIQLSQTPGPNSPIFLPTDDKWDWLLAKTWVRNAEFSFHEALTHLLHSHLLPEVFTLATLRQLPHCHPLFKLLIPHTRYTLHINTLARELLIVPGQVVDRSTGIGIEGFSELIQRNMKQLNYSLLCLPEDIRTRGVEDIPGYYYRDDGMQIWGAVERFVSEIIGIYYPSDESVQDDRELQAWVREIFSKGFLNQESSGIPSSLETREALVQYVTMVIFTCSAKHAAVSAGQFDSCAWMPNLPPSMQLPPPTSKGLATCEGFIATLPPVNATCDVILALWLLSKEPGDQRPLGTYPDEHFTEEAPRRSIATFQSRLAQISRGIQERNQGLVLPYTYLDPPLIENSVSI
Description: as §1

CC1(C)CCC2=C(O1)c1ccccc1C(=O)C2=O [Compound 1, 3,4-dihydro-2,2-dimethyl-2H-naphtho[1,2-b]pyran-5,6-dione]
Ligand efficiency (LE), 5-LO (5-lipoxygenase (5-LO); from IC50 2.1 μM): 0.44
inhibition at 150 µM (5-lipoxygenase (5-LO); read-out: 5-LO inhibition at the assayed concentration): 96%
IC50 (5-lipoxygenase (5-LO); reducing conditions): 2100 nM
Toxicity at higher doses [1]: toxicity
Tryptophan fluorescence shift (purified human 5-LO): blue shift
PDE5 screening outcome [2]: inactivity
EP3 antagonist effect (EP3): 95%
MBC (Escherichia coli K12): > 200 µM
TRPV1 antagonist effect (TRPV1): 63%
inhibition at 5 µM [3]: -13%
